The values that follow come from patent US20220009920A1 (GB005, Inc., priority 2020, published 2022).

Test in all cases: Large panel kinase profiling
Common to all, as to assay type: biochemical
What all share (conditions): 1 μM test article, 1 mM ATP

The target of one test is BLK (Homo sapiens, UniProt P51451). The method, boiled down: (§1)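 At 30° C., kinases turned over a CSox-Sensor peptide substrate with 1 mM ATP while 1 μM test article was present. Progress was followed by kinetic fluorescence readings.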
In the next test the target is T1, MARK1 (Homo sapiens, UniProt Q9P0L2).
T1 construct: AssayQuant Technologies, Inc. (assay service)
In a few lines:
as §1

The next test concerns the target T2, SGK1 (Homo sapiens, UniProt O00141).
T2 construct: AssayQuant Technologies, Inc. (contract assay)
T2 sequence (O00141 1-431): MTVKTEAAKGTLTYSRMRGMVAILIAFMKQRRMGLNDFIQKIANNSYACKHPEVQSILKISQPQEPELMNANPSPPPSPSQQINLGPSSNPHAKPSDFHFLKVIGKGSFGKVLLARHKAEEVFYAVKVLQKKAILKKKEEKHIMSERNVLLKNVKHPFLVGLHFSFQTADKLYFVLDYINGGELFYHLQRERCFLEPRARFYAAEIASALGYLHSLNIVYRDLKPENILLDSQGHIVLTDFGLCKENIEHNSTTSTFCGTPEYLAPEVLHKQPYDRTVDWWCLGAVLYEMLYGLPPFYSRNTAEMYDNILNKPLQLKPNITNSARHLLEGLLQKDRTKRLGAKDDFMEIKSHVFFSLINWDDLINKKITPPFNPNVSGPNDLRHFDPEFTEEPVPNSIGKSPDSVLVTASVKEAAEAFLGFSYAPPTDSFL
The method, boiled down: as §1

The target in a further test is T3, AURKA/AURA (Homo sapiens, UniProt O14965).
T3 sequence (O14965 1-403): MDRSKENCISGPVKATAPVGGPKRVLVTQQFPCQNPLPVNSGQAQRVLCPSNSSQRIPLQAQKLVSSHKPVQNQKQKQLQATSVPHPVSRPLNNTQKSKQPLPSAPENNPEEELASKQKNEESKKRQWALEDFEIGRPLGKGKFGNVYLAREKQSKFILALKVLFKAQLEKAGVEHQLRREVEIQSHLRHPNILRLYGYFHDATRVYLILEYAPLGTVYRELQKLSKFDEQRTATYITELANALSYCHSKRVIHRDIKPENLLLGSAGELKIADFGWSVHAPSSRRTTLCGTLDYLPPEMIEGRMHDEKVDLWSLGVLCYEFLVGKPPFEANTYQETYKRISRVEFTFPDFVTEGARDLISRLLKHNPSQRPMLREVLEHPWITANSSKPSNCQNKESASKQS
In a few lines: as §1

Another test has as its target T4, ULK2 (Homo sapiens, UniProt Q8IYT8).
T4 construct: AssayQuant Technologies, Inc. (contract laboratory that ran the panel)
T4 sequence (Q8IYT8 1-1036): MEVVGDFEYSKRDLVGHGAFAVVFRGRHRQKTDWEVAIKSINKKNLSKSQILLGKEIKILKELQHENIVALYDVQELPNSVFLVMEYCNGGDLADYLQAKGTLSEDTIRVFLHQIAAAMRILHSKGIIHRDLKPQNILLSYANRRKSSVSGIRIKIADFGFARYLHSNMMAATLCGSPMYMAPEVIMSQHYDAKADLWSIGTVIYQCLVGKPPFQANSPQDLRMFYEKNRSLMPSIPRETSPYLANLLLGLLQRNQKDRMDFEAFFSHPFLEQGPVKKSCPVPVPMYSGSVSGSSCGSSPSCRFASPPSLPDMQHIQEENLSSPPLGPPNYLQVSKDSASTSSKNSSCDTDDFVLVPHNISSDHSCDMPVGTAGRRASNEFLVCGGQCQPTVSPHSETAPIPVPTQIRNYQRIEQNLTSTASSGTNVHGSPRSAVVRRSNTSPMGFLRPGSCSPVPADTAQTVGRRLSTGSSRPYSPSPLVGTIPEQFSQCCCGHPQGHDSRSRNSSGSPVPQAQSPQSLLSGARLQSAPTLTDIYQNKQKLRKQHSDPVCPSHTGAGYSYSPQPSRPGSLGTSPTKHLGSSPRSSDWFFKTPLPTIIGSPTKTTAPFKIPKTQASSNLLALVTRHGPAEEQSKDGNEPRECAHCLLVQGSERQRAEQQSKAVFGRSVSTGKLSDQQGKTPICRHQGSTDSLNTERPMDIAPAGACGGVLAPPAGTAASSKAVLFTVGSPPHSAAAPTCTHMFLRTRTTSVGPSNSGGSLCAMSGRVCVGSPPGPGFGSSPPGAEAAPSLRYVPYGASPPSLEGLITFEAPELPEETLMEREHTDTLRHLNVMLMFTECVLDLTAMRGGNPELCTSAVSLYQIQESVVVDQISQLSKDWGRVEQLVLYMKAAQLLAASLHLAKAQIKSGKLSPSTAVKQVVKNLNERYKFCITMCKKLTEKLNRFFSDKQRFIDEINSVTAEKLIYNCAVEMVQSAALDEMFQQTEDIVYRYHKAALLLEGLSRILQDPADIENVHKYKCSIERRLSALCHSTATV
In a few lines: as §1

The target of another test is AAK1 (Homo sapiens, UniProt Q2M2I8). The method, boiled down: as §1
The target of the next test is T5, JAK2(JH1) (Homo sapiens, UniProt O60674).
T5 construct: JAK2(JH1)
The method, boiled down: as §1

A further test concerns the target ROS (Homo sapiens, UniProt P08922). In a few lines:
as §1

Molecules are shown by their SMILES.

Chain of AAK1 (Q2M2I8 whole entry): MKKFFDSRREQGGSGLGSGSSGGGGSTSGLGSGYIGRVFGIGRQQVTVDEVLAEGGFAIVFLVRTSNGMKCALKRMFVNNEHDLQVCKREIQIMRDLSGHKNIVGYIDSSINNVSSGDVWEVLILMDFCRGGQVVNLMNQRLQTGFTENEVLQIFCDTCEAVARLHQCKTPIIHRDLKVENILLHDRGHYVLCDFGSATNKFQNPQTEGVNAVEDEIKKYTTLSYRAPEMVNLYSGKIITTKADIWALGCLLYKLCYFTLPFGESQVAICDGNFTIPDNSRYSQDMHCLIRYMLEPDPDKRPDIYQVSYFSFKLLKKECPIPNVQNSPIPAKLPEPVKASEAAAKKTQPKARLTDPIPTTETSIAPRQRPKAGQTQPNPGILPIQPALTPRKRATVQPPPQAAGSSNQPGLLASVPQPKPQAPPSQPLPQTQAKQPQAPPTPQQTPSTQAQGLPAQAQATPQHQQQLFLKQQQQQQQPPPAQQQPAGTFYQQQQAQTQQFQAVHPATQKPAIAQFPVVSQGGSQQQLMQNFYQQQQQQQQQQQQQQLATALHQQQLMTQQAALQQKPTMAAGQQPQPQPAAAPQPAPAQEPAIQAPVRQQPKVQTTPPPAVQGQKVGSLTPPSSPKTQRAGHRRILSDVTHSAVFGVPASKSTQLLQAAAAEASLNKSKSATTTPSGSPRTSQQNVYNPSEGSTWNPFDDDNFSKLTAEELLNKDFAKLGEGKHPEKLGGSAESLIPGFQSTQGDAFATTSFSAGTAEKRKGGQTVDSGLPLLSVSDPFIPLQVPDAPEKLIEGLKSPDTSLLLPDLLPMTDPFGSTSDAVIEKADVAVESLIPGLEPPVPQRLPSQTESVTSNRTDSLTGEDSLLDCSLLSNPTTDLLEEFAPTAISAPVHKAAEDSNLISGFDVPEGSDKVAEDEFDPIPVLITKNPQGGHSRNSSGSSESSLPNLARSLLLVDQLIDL
Chain of ROS (P08922 28-2347, species assumed): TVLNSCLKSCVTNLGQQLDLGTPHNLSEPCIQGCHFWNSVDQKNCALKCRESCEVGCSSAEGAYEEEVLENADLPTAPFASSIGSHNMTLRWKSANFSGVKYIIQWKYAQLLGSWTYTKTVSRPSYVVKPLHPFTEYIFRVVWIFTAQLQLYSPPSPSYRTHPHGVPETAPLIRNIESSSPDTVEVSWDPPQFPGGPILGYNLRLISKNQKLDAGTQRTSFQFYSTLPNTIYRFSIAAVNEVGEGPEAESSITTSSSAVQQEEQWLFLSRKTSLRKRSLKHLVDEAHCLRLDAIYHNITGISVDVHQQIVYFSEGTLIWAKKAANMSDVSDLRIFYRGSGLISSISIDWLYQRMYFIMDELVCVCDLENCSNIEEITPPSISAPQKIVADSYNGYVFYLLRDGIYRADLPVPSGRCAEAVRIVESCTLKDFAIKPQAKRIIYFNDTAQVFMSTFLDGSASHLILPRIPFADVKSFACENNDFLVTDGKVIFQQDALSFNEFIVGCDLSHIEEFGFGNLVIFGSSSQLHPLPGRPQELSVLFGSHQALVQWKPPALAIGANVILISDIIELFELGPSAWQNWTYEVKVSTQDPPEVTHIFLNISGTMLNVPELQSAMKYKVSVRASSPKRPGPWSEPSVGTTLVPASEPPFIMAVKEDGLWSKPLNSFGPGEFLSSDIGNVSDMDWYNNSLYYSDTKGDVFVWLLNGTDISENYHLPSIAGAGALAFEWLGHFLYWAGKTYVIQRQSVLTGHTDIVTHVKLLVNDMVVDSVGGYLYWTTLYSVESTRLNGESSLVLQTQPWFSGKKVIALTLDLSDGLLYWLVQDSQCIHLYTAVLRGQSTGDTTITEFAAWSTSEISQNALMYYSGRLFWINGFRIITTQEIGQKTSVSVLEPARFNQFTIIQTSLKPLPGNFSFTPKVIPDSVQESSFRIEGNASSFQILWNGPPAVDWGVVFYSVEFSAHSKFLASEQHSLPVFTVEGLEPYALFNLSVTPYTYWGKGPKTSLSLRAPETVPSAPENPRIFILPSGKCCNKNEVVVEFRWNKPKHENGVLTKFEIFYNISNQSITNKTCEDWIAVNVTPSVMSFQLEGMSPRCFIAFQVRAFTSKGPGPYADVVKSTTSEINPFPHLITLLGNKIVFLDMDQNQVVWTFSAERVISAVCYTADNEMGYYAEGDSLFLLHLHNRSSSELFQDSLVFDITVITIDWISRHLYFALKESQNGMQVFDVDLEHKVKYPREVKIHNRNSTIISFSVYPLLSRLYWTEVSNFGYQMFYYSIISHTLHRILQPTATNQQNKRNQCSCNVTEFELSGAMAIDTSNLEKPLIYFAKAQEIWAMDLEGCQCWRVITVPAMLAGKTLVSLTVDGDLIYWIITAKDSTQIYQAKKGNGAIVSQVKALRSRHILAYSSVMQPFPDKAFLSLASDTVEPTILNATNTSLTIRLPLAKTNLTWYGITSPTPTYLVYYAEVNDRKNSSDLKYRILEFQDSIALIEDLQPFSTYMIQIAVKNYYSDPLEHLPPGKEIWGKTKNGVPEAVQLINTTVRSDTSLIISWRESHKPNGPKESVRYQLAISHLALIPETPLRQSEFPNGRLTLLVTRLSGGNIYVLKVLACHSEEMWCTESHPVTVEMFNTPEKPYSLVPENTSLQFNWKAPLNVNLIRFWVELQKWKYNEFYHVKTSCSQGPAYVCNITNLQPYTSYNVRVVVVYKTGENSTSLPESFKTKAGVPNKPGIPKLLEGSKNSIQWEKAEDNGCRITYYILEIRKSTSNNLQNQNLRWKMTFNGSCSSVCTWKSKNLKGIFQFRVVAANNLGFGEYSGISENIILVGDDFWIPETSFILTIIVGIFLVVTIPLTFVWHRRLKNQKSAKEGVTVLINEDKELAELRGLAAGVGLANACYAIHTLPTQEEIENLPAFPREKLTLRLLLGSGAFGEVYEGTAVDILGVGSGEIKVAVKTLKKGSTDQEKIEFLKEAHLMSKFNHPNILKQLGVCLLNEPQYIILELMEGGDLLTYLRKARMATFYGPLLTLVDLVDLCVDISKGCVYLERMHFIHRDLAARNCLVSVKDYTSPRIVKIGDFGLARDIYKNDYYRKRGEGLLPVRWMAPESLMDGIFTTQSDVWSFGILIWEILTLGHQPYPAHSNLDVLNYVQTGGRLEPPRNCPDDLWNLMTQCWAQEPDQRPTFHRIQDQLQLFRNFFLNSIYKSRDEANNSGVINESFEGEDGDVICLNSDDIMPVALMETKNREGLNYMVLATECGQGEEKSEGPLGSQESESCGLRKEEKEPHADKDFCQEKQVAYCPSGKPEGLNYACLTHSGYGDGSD
Chain of BLK (P51451 whole entry): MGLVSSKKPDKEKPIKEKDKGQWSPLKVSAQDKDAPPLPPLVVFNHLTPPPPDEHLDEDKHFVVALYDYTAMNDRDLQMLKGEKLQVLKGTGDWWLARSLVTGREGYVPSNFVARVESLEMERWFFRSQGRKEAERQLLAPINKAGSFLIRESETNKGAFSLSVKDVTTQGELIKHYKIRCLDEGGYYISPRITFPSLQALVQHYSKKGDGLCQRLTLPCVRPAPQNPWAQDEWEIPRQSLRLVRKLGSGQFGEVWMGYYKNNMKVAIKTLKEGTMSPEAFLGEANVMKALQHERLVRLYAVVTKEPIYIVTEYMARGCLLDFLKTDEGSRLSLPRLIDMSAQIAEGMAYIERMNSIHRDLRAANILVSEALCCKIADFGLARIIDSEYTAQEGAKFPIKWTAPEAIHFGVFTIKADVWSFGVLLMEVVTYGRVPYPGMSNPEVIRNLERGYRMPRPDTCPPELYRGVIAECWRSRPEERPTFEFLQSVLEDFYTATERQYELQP
T5 sequence (O60674 849-1124 limits assumed, species assumed): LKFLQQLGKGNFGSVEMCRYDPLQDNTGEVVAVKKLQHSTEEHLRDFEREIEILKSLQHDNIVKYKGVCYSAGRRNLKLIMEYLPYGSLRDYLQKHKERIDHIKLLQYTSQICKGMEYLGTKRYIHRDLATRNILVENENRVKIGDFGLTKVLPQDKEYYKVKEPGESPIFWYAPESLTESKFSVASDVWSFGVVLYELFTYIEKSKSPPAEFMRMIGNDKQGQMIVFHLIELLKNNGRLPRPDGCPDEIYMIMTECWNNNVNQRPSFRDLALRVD
T1 sequence (Q9P0L2 whole entry, species assumed): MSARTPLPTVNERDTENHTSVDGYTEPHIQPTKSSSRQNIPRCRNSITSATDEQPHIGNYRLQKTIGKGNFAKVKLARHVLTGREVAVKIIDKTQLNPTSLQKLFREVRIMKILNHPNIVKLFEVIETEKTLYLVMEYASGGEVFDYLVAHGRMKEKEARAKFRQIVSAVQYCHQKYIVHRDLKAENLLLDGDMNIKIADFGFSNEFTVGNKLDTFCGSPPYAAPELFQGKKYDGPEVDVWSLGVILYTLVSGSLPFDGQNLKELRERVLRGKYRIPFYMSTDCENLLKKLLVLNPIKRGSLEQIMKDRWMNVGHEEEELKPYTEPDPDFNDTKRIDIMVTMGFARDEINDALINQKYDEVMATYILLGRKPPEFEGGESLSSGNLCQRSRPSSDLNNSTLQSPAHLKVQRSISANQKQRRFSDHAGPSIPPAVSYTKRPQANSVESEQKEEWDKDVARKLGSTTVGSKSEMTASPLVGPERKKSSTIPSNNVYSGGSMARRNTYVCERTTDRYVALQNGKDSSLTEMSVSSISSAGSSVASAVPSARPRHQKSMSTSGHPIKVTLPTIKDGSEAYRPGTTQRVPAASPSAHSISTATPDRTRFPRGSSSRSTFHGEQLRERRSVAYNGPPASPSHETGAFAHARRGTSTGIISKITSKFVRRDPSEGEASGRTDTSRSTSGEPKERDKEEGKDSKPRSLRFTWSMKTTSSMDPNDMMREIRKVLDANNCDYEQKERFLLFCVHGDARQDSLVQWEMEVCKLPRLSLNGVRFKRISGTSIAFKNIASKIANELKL

In general, inhibition refers to the change of the read-out against control, counted positive when it falls. Take `C=CC(=O)N1CCC[C@@H](c2c(F)cc(C(N)=O)c3[nH]c4c(c23)CCC4)C1` [Compound 10-2, (S)-8-(1-acryloylpiperidin-3-yl)-7-fluoro-1,2,3,4-tetrahydrocyclo-penta[b]indole-5-carboxamide]: the inhibition at 1 µM was -2.3% against BLK; -12.9% on MARK1; 14.8% at SGK1; -12.1% against AURKA/AURA; -5.8% on ULK2; -14.3% against AAK1. Moreover, the inhibition at 1 µM on JAK2(JH1) is -0.8%; at ROS it was -22%.

For `C=CC(=O)N1CCCC(c2c(F)cc(C(N)=O)c3[nH]c4c(c23)CCCCC4)C1` (single isomer, unassigned) [Compound 5-6], the inhibition at 1 µM at BLK is 30.3%; against MARK1 it was 15.4%; against SGK1, 4.3%; against AURKA/AURA, -42%; against ULK2, -17.5%; against AAK1, -20.3%. Moreover, the inhibition at 1 µM is 11.4% at JAK2(JH1) and -35.7% against ROS.

In the case of `C=CC(=O)N1CCC[C@@H](c2c(F)cc(C(N)=O)c3[nH]c4c(c23)CC2(CC4)CC2)C1` [Compound 6-2, (S)-5-(1-acryloylpiperidin-3-yl)-6-fluoro-1,2,4,9-tetrahydrospiro[carbazole-3,1′-cyclopropane]-8-carboxamide], the inhibition at 1 µM at BLK is 65.7%; against MARK1 it was -63.9%; on SGK1, 10.7%; against AURKA/AURA, -24.7%; against ULK2 it was -6.2%; against AAK1 it was -15.7%. Moreover, the values for the inhibition at 1 µM at JAK2(JH1) and at ROS were 10.3% and -3.6%, respectively.
